Laboratory results: patent publication US6884792B2, “Bretylium compositions and kits and their use in preventing and treating cardiovascular conditions” (priority 1999, dated 2005)
Counter-ions that a name gives are not always drawn. Like-named read-outs stand apart in the source and are kept apart here.

Columns and labels:
Mongrel dogs = test: Oral bretylium-tosylate/facilitating-anion combinations: VFT and EVRP; format: in vivo; settings: dog; 50 milliamps
Method: A catheter electrode was passed under fluoroscopic observation via the jugular vein into the apex of the right ventricle and screwed into place in the myocardium of the right ventricle. […] After the control VFT and EVRP were measured, the compositions were orally administered in capsule form via a stomach tube. […] The VFT and EVRP were measured at various times following this administration. […] See also FIGS. 8-10.

dogs [1] = test: VFT 1-5 hours after injection of bretylium tosylate and/or β-receptor blockers; format: in vivo, dog
Method: The increase in efficacy of the bretylium cation afforded by administering the bretylium cation in combination with a β-receptor blocker was tested by administering via injection bretylium tosylate alone, various β-receptor blockers alone, and various combinations of bretylium tosylate and β-receptor blockers to dogs, and then measuring the ventricular fibrillation threshold of the dogs 1-5 hours after drug administration.

mongrel dog [2] = tested on: mongrel dog
Method: At time zero, a 5 milliamp stimulus was applied and a ventricular fibrillation threshold (VFT) was established.
At 1 hour and 20 minutes, the dog was given a 50 mg/kg dose of bretylium lauryl sulfate salt.
At three hours and twenty minutes, the dog's left anterior coronary artery was ligated to attempt to induce ventricular fibrillation by coronary occlusion.
Next, at three hours and thirty-seven minutes, 50 milliamps (the maximum current) was applied in an attempt to induce ventricular fibrillation and/or atrial fibrillation.

dog = settings: orally administered to a dog
[3] = Method: To measure the partition coefficient for a facilitating anion in the presence of a bretylium compound, an acidified aqueous solution of the bretylium compound with a non-facilitating anion (e.g., tosylate, bromide or chloride) is first prepared. Sodium bicarbonate and a salt comprising the facilitating anion to be tested are then added to the aqueous solution. The salt comprising the facilitating anion should be added in an amount sufficient to provide about a 1:1 molar ratio of the facilitating anion to the bretylium cation. The sodium bicarbonate is provided in an amount sufficient to produce a preselected pH value. An equal volume of n-octanol is then added to this solution. The solution is shaken. The mixture is centrifuged to separate an octanol-rich layer and an aqueous-rich layer, and the distribution ratio of the bretylium cation between the octanol-rich phase and the aqueous-rich phase (that is, the partition coefficient) may be measured. This analytical approach is believed to provide a suitable model for evaluating the bioavailability of the bretylium cation when utilized with a facilitating anion.
Several formulations of the present invention were tested using an n-octanol/aqueous buffer system to measure the partition coefficients for the bretylium cation in the presence of the facilitating anions of those formulations. An acidified aqueous solution of bretylium tosylate was first prepared. Sodium bicarbonate and a salt comprising the facilitating anion to be tested was then added to the aqueous solution. The salt comprising the facilitating anion was added in an amount sufficient to provide a 1:1 molar ratio of the facilitating anion to the bretylium cation. The sodium bicarbonate was provided in an amount sufficient to produce one of 4 preselected pH values. An equal volume of n-octanol was then added to this solution and the solution was shaken. The mixture was centrifuged to separate an octanol layer and an aqueous layer, and the distribution ratio of the bretylium cation between the octanol-rich phase and the aqueous-rich phase (that is, the partition coefficient) was measured. This analytical approach provides a suitable model for evaluating the bioavailability of the bretylium cation in the compositions tested.
The aqueous bretylium tosylate solutions used in the procedure were prepared in the following manner. An amount of one of the buffer solutions described below (3.0 ml when the most acidic buffer solution was used, and 4.0 ml when the other 3 buffer solutions were used) was transferred to a beaker or an Erlenmeyer flask by pipette. To the buffer solution was added 50 mg of bretylium tosylate per ml of buffer solution and an equimolar amount of the sodium salt of the facilitating anion. For example, where the facilitating anion tested was di(2-ethylhexyl)sulfosuccinate, 54 mg of sodium di(2-ethylhexyl)sulfosuccinate was added per ml of buffer solution. […] Test solutions comprising other facilitating agents were prepared in a similar manner.
Each of the pharmaceutical compositions was tested using each of the following sodium bicarbonate buffer systems:
The first buffer solution was prepared by dissolving 1.0 g of sodium bicarbonate in 100 ml of 0.95M HCl. A pH meter equipped with a conventional glass electrode and a calomel reference electrode was used to measure the nominal pH of this solution and the other 3 buffer solutions.
The second buffer solution was prepared by dissolving 7.5 g of sodium bicarbonate in 100 ml of 0.95M HCl.
The third buffer solution was prepared by dissolving 8.0 g of sodium bicarbonate in 100 ml of 0.95M HCl.

mongrel dog [4] = test: Electrically induced atrial fibrillation, intravenous administration; format: in vivo; settings: single intravenous dose, 15 mg bretylium tosylate per kg
Method: This electrode catheter delivered stimulating shocks consisting of a train of square wave pulses of 1 msec duration at 60 Hz. Atrial fibrillation was induced at a current of 6 milliamps.
Defibrillation was first attempted using a single dose of bretylium tosylate (Arnar-Stone, McGaw Park, Ill.) administered intravenously (the dose corresponded to 15 mg of bretylium tosylate per kg of the recipient).
Subsequently, a composition containing bretylium tosylate and aspirin was administered intravenously into the jugular vein. This composition was prepared using a commercially available tablet containing aspirin. The aspirin tablet was dissolved in warm water and filtered through a fine surgical gauze pad (to remove the bulk of the binder in the tablet). The resulting aspirin filtrate was then combined with an approximately equimolar amount of bretylium tosylate dissolved in 5% dextrose in water. Approximately 20 ml of this aqueous solution was injected into jugular vein of the atrially fibrillating dog (this dose corresponded to roughly 15 mg of bretylium tosylate per kg of the recipient and 6.5 mg of aspirin per Kg recipient).

dogs [5] = tested on: dogs
[6] = water/octanol, relative to chloride; cited from earlier work
[7] = intravenous, about 20 mg bretylium tosylate per kg

CC[N+](C)(C)Cc1ccccc1Br.O=C([O-])c1ccccc1O [Bretylium Salicylate, bretylium salicylate]
ventricular or atrial fibrillation despite maximum electrical stimulation (Mongrel dogs): did not occur

CC(C)NCC(O)COc1ccc(CC(N)=O)cc1 (centres unmarked) [atenolol]
Mean % Increase in VFT (dogs [1]; per kg: 0.05 mg atenolol, no bretylium, 1-5 hours): 330% ± 210%

CCCCCCCCCCCCOS(=O)(=O)[O-].CC[N+](C)(C)Cc1ccccc1Br [bretylium lauryl sulfate salt, bretylium lauryl sulfate]
ventricular or atrial fibrillation despite maximum electrical stimulation (Mongrel dogs): did not occur
rhythm 46 minutes after administration despite attempts to reinitiate atrial fibrillation with electrical stimulation (mongrel dog [2]; FIG. 8 legend): maintained a normal sinus rhythm
fibrillation induced by electrical stimulation at 50 milliamps (maximum current) (mongrel dog [2]; at 3 h 37 min of experiment): No fibrillation (atrial or ventricular) could be induced
time after dose at which atrial fibrillation ceased entirely (mongrel dog [2]; dog, in vivo, 50 mg/kg): 19 min
time after dose to periods of normal sinus rhythm (mongrel dog [2]; dog, in vivo, 50 mg/kg): Approximately 18 minutes
ventricular fibrillation after release of the coronary occlusion (mongrel dog [2]; following two minutes after release at 3 h 35 min): no ventricular fibrillation was observed
ventricular fibrillation on ligation of left anterior coronary artery (mongrel dog [2]; ligated at 3 h 20 min of experiment, 2 h after 50 mg/kg dose): No ventricular fibrillation was observed
antifibrillatory activity (dog): active antifibrilant

CC[N+](C)(C)Cc1ccccc1Br.Cc1ccc(S(=O)(=O)[O-])cc1 [bretylium tosylate, 2-bromobenzylethyldimethylammonium p-toluenesulfonate, reference compound]
PARTITION COEFFICIENT ([3]; pH 0.8): 0.33
PARTITION COEFFICIENT ([3]; pH 2.1): 0.48
PARTITION COEFFICIENT ([3]; pH 5.5): 0.45
PARTITION COEFFICIENT ([3]; pH 7.7): 0.49
effect on atrial fibrillation (mongrel dog [4]): No effect
Mean % Increase in VFT (dogs [1]; per kg: 20 mg bretylium tosylate, no β-receptor blocker, 1-5 hours after administration): 100-200% (no standard
time after administration at which a substantial increase in ventricular fibrillation threshold began (dogs [5]; [7]): 12 to 15 min
time after administration of peak increase in ventricular fibrillation threshold (dogs [5]; [7]): About 3 hours

CCCCC(CC)COP(=O)(O)OCC(CC)CCCC (centres unmarked) [di(2-ethylhexyl)phosphate]
PARTITION COEFFICIENT ([3]; pH 0.8): 0.35
PARTITION COEFFICIENT ([3]; pH 2.2): 0.49
PARTITION COEFFICIENT ([3]; pH 5.5): 0.51
PARTITION COEFFICIENT ([3]; pH 7.7): 2.33

CCCCC(CC)COC(=O)CC(C(=O)OCC(CC)CCCC)S(=O)(=O)O (centres unmarked) [di(2-ethylhexyl)sulfosuccinate]
PARTITION COEFFICIENT ([3]; pH 5.5): 4.16
PARTITION COEFFICIENT ([3]; pH 5.6): 4.94
PARTITION COEFFICIENT ([3]; pH 7): 5.03
PARTITION COEFFICIENT ([3]; pH 7.7): 3.61

COC(=O)CCc1ccc(OCC(O)CNC(C)C)cc1 (centres unmarked) [esmolol]
Mean % Increase in VFT (dogs [1]; per kg: 25 to 300 μg esmolol, no bretylium, 1-5 hours): no significant increase

COCCc1ccc(OCC(O)CNC(C)C)cc1 (centres unmarked) [metoprolol]
Mean % Increase in VFT (dogs [1]; per kg: 0.05 mg metoprolol, no bretylium, 1-5 hours): 96% ± 70%

CC(C)NCC(O)COc1cccc2ccccc12 (centres unmarked) [propranolol]
Mean % Increase in VFT (dogs [1]; per kg: 0.075 mg propranolol, no bretylium, 1-5 hours): 110% ± 40%
increase in the ventricular fibrillation threshold (dogs [5]; intravenous propranolol alone, 0.05 to 0.5 mg/kg): 110%±40%

Cc1ccc(S(=O)(=O)O)cc1 [tosylate anion, tosylate]
organic/aqueous phase distribution constant (K) [6]: about 320

lauryl sulfate
PARTITION COEFFICIENT ([3]; n-octanol/buffer, nominal pH 0.8, 1:1 molar facilitating anion:bretylium tosylate): 1.91
PARTITION COEFFICIENT ([3]; n-octanol/buffer, nominal pH 2.2, 1:1 molar facilitating anion:bretylium tosylate): 3.54
PARTITION COEFFICIENT ([3]; n-octanol/buffer, nominal pH 5.5, 1:1 molar facilitating anion:bretylium tosylate): 3.71
PARTITION COEFFICIENT ([3]; n-octanol/buffer, nominal pH 7.0, 1:1 molar facilitating anion:bretylium tosylate): 4.01
